Reference: patent US10172927B2, “Detection/measurement of malaria infection disease utilizing natural immunity by hemozoin induction, screening of preventative or therapeutic medicine for malaria infection disease, and regulation of natural immunity induction” (Osaka University, priority 2004, dated 2019)

Test system: FL-DCs stimulated with HZ
Test: Chloroquine effect on HZ-induced cytokine production by FL-DCs
Assay type: cell-based, mouse
Conditions: 30 μM HZ, CQ 10 μM, 24 hours; P<0.05 HZ vs. HZ+CQ
Procedure: Single cell suspensions of spleen cells (5×10^5 cells/well) were cultured in complete RPMI 1640 medium supplemented with 10% FCS for 48 hours. F1t3 ligand-induced bone marrow-derived DCs (FL-DCs) (1×10^5 cells/well) were generated by culturing bone marrow cells with F1t3 ligand (100 ng/ml; Pepro Tech) for eight to nine days in DMEM medium containing 10% FCS. The cells were stimulated in the presence of the indicated stimuli and supernatants were collected for cytokine ELISA.
Murine TNF-α, IL-12p40, MCP-1, IL-6 (R & D Systems), and IFNα (PBL Bio. Lab) were measured either from the supernatants or the sera by ELISA according to the manufacturer's instructions.
The anti-malarial formulation, chloroquine (CQ), has been reported to inhibit proinflammatory responses during malaria infection in addition to endosome/lysosome maturations and malarial hemozoin crystal formations, whereas the exact mechanism of anti-malarial effects of CQ is still under debate (Int. J. Parasitol. 32: 1645-1653, 2002; Life Sci. 74: 1957-1972, 2004). […] To examine the effect of CQ to HZ-induced proinflammatory responses, FL-DCs were stimulated with HZ in the presence of CQ. […]
(a) To detect DNA contamination, HZ was run on an agarose gel and stained with ethidium bromide. […] Then the supernatants were collected and measured for TNFα or IL-12p40 by ELISA. […] “n.d.” means “not detected”.

## CCN(CC)CCCC(C)Nc1ccnc2cc(Cl)ccc12 (stereo not shown) [CQ, chloroquine]
  HZ-induced TNFα and IL-12p40 productions by FL-DCs in the presence of CQ: diminished
